From PubChem BioAssay (NCI)
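Dose response: 5 concentrations. Exposure: 48 h. Format: 96-well plates. Endpoint: linear interpolation; highest concentration if not reached. TGI is the concentration that stops growth completely.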

Tests used:
Test in all cases: NCI-60 cell line screen, 48 h
786-0 renal = tested on: 786-0 renal
A498 renal = tested on: A498 renal
A549 NSCLC = tested on: A549 NSCLC
ACHN renal = tested on: ACHN renal
BT-549 breast = tested on: BT-549 breast
CAKI-1 renal = tested on: CAKI-1 renal
CCRF-CEM leukemia = tested on: CCRF-CEM leukemia
COLO 205 colon = tested on: COLO 205 colon
DU-145 prostate = tested on: DU-145 prostate
EKVX NSCLC = tested on: EKVX NSCLC
HCC-2998 colon = tested on: HCC-2998 colon
HCT-116 colon = tested on: HCT-116 colon
HCT-15 colon = tested on: HCT-15 colon
HL-60(TB) leukemia = tested on: HL-60(TB) leukemia
HOP-62 NSCLC = tested on: HOP-62 NSCLC
HOP-92 NSCLC = tested on: HOP-92 NSCLC
HS 578T breast = tested on: HS 578T breast
HT29 colon = tested on: HT29 colon
IGROV1 ovarian = tested on: IGROV1 ovarian
K-562 leukemia = tested on: K-562 leukemia
KM12 colon = tested on: KM12 colon
LOX IMVI melanoma = tested on: LOX IMVI melanoma
M14 melanoma = tested on: M14 melanoma
MALME-3M melanoma = tested on: MALME-3M melanoma
MCF7 breast = tested on: MCF7 breast
MDA-MB-231 breast = tested on: MDA-MB-231 breast
MDA-MB-435 = tested on: MDA-MB-435
MDA-N = tested on: MDA-N
MOLT-4 leukemia = tested on: MOLT-4 leukemia
NCI-H226 lung = tested on: NCI-H226 lung
NCI-H23 lung = tested on: NCI-H23 lung
NCI-H460 lung = tested on: NCI-H460 lung
NCI-H522 lung = tested on: NCI-H522 lung
NCI/ADR-RES ovarian = tested on: NCI/ADR-RES ovarian
OVCAR-3 ovarian = tested on: OVCAR-3 ovarian
OVCAR-4 ovarian = tested on: OVCAR-4 ovarian
OVCAR-5 ovarian = tested on: OVCAR-5 ovarian
OVCAR-8 ovarian = tested on: OVCAR-8 ovarian
PC-3 prostate = tested on: PC-3 prostate
RPMI-8226 leukemia = tested on: RPMI-8226 leukemia
RXF 393 renal = tested on: RXF 393 renal
SF-268 CNS = tested on: SF-268 CNS
SF-295 CNS = tested on: SF-295 CNS
SF-539 CNS = tested on: SF-539 CNS
SK-MEL-2 melanoma = tested on: SK-MEL-2 melanoma
SK-MEL-28 melanoma = tested on: SK-MEL-28 melanoma
SK-MEL-5 melanoma = tested on: SK-MEL-5 melanoma
SK-OV-3 ovarian = tested on: SK-OV-3 ovarian
SN12C renal = tested on: SN12C renal
SNB-19 CNS = tested on: SNB-19 CNS
SNB-75 CNS = tested on: SNB-75 CNS
SR leukemia = tested on: SR leukemia
SW-620 colon = tested on: SW-620 colon
T-47D breast = tested on: T-47D breast
TK-10 renal = tested on: TK-10 renal
U251 CNS = tested on: U251 CNS
UACC-257 melanoma = tested on: UACC-257 melanoma
UACC-62 melanoma = tested on: UACC-62 melanoma
UO-31 renal = tested on: UO-31 renal

Compound: Cc1cc2c(c(C=Nc3ccc(N(C)C)cc3)c1)OC1(C=C2)Oc2ccccc2C(=O)N1C (centres undefined)
- TGI (786-0 renal): 28.2 µM
- TGI (A498 renal): 42.1 µM
- TGI (A549 NSCLC): 55.6 µM
- TGI (ACHN renal): 25.5 µM
- TGI (BT-549 breast): 29.4 µM
- TGI (CAKI-1 renal): 28 µM
- TGI (CCRF-CEM leukemia): 17.5 µM
- TGI (COLO 205 colon): 33.9 µM
- TGI (DU-145 prostate): 27.9 µM
- TGI (EKVX NSCLC): 27.1 µM
- TGI (HCC-2998 colon): 30.2 µM
- TGI (HCT-116 colon): 21.6 µM
- TGI (HCT-15 colon): 27.6 µM
- TGI (HL-60(TB) leukemia): 19.9 µM
- TGI (HOP-62 NSCLC): > 67.5 µM
- TGI (HOP-92 NSCLC): 44.8 µM
- TGI (HS 578T breast): > 90.4 µM
- TGI (HT29 colon): 57.2 µM
- TGI (IGROV1 ovarian): 27.1 µM
- TGI (K-562 leukemia): 21.1 µM
- TGI (KM12 colon): 31 µM
- TGI (LOX IMVI melanoma): 29.7 µM
- TGI (M14 melanoma): 30 µM
- TGI (MALME-3M melanoma): 33.4 µM
- TGI (MCF7 breast): 37.9 µM
- TGI (MDA-MB-231 breast): 24.8 µM
- TGI (MDA-MB-435): 26.7 µM
- TGI (MDA-N): 28.1 µM
- TGI (MOLT-4 leukemia): 23.5 µM
- TGI (NCI-H226 lung): 70.2 µM
- TGI (NCI-H23 lung): 28.4 µM
- TGI (NCI-H460 lung): 36.5 µM
- TGI (NCI-H522 lung): 36.9 µM
- TGI (NCI/ADR-RES ovarian): > 60.7 µM
- TGI (OVCAR-3 ovarian): > 50.1 µM
- TGI (OVCAR-4 ovarian): 25.1 µM
- TGI (OVCAR-5 ovarian): 32.4 µM
- TGI (OVCAR-8 ovarian): 42.9 µM
- TGI (PC-3 prostate): > 52.5 µM
- TGI (RPMI-8226 leukemia): 31.1 µM
- TGI (RXF 393 renal): > 58 µM
- TGI (SF-268 CNS): 45.4 µM
- TGI (SF-295 CNS): 46.5 µM
- TGI (SF-539 CNS): 28.2 µM
- TGI (SK-MEL-2 melanoma): > 54.8 µM
- TGI (SK-MEL-28 melanoma): 29.7 µM
- TGI (SK-MEL-5 melanoma): 27.6 µM
- TGI (SK-OV-3 ovarian): 66.6 µM
- TGI (SN12C renal): 30 µM
- TGI (SNB-19 CNS): 24.5 µM
- TGI (SNB-75 CNS): 39.5 µM
- TGI (SR leukemia): > 100 µM
- TGI (SW-620 colon): 35.6 µM
- TGI (T-47D breast): 57.5 µM
- TGI (TK-10 renal): 30.7 µM
- TGI (U251 CNS): 28.7 µM
- TGI (UACC-257 melanoma): 28.1 µM
- TGI (UACC-62 melanoma): 26.7 µM
- TGI (UO-31 renal): 23.2 µM
